Tests used:
[1] = Photodecomposition of monatin in beverage model solution in PET container under D65 fluorescence lamp, HPLC; assay type: physicochemical; conditions: D65 lamp 3000 lux, 165 hr
Protocol: Temperature: 25° C. constant temperature room (forced circulation).
HPLC Analysis Conditions:
The pH of a beverage model solution, a (citric acid 2 g, sodium benzoate 0.045 g)/L solution, was adjusted with 8N sodium hydroxide. (2R, 4R)monatin potassium salt (25 mg) and various additives were dissolved in the adjusted beverage model solution (500 mL) and filled in PET containers. […] The solution was simultaneously filled in a 20 ml screw cap vial and left standing for the same time in the same constant temperature room under a light shield. These light exposure solutions and light shield solutions were subjected to HPLC analysis, and photodecomposition rates were calculated by the following formula: The photodecomposition rate (%)=(1−(mass % concentration of monatin in light exposure solution/mass % concentration of monatin in light shield solution))×100 […]

[2] = Decomposition of monatin in solution by ultraviolet light (findings of the inventor); assay type: physicochemical; conditions: solution state

Compound	photodecomposition rate ([1]; pH 2.8, 50 ppm) [%]	photodecomposition rate ([1]; pH 3.1, 50 ppm) [%]	photodecomposition rate ([1]; pH 3.5, 50 ppm) [%]	photodecomposition rate ([1]; pH 4, 50 ppm) [%]	photodecomposition rate ([1]; pH 4.5, 50 ppm) [%]	photodecomposition rate ([1]; pH 5.5, 50 ppm) [%]	photodecomposition rate ([1]; pH 6.5, 50 ppm) [%]	decomposition by ultraviolet light [2]
N[C@@H](Cc1c[nH]c2ccccc12)C(=O)O [Trp, tryptophan, reference compound]	7.3	6.0	6.2	5.5	5.4	12.5	55.1	
N[C@@H](C[C@@](O)(Cc1c[nH]c2ccccc12)C(=O)O)C(=O)O [monatin]	52.5	45.1	27.6	15.9	10.2	4.8	4.3	tends to decompose when exposed to ultraviolet light
(2R,4S)monatin								tend to be more easily decomposed by ultraviolet light than the other isomers
(2S,4R)monatin								tend to be more easily decomposed by ultraviolet light than the other isomers

— patent publication US7781005B2, “Sweetener composition” (Ajinomoto Co., Inc., priority 2004, dated 2010)
